Data from patent US8329725B2, “Annelated pyrrolidin sulfonamides with oxadiazolone headgroup, processes for their preparation and their use as pharmaceuticals” (Sanofi, priority 2008, dated 2012).

Legend:
human PPARalpha = molecular target: T1, human PPARalpha (Homo sapiens, UniProt Q07869); assay: Cellular PPARalpha assay (luciferase reporter, stably transfected HEK cell line); type: cell-based; conditions: PPARalpha reporter cell line (HEK, GR-GAL4-humanPPARalpha-LBD)
T1 construct: human PPARalpha receptor (amino acids S167-Y468); expressed in transfected cells
T1 sequence (Q07869 167-468): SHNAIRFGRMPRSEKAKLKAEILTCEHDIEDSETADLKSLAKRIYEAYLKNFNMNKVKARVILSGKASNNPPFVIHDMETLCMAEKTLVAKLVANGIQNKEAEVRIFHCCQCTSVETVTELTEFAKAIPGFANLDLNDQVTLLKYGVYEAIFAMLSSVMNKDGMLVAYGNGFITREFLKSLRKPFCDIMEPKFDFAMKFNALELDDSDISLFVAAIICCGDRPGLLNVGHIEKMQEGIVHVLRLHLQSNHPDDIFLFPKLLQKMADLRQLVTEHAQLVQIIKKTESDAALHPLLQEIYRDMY
Method: Determination of EC50 Values of PPAR Agonists in the Cellular PPARalpha Assay
The potency of substances which bind to human PPARalpha and activate it in an agonistic manner is analyzed using a stably transfected HEK cell line (HEK=human embryo kidney) which is referred to here as PPARalpha reporter cell line. It contains two genetic elements, a luciferase reporter element (pdeltaM-GAL4-Luc-Zeo) and a PPARalpha fusion protein (GR-GAL4-humanPPARalpha-LBD) which mediates expression of the luciferase reporter element depending on a PPARalpha ligand. The stably and constitutively expressed fusion protein GR-GAL4-humanPPARalpha-LBD binds in the cell nucleus of the PPARalpha reporter cell line via the GAL4 protein portion to the GAL4 DNA binding motifs 5′-upstream of the luciferase reporter element which is stably integrated in the genome of the cell line. There is only weak expression of the luciferase reporter gene in the absence of a PPARalpha ligand if fatty acid-depleted fetal calf serum (cs-FCS) is used in the assay. PPARalpha ligands bind and activate the PPARalpha fusion protein and thereby stimulate the expression of the luciferase reporter gene. The luciferase which is formed can be detected by means of chemiluminescence via an appropriate substrate. […]
The activity of PPARalpha agonists is determined in a 3-day assay which is described below: […]

human PPARdelta = molecular target: T2, human PPARdelta (Homo sapiens, UniProt Q03181); assay: Cellular PPARdelta assay (luciferase reporter, stably transfected HEK cell line); type: cell-based; conditions: PPARdelta reporter cell line (HEK, GR-GAL4-humanPPARdelta-LBD)
T2 construct: human PPARdelta receptor (amino acids S139-Y441); expressed in transfected cells
T2 sequence (Q03181 139-441): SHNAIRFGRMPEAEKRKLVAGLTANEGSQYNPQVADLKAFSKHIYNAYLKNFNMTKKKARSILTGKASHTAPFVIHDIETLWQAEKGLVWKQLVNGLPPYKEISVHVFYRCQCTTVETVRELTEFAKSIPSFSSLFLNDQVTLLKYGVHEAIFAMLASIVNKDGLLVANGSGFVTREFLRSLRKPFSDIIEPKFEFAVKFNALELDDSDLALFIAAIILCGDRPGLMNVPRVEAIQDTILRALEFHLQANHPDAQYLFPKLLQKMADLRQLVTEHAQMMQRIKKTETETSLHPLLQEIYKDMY
Method: Determination of EC50 Values of PPAR Agonists in the Cellular PPARdelta Assay
The potency of substances which bind to human PPARdelta and activate it in an agonistic manner is analyzed using a stably transfected HEK cell line (HEK=human embryo kidney) which is referred to here as PPARdelta reporter cell line. In analogy to the assay described for PPARalpha, the PPARdelta reporter cell line also contains two genetic elements, a luciferase reporter element (pdeltaM-GAL4-Luc-Zeo) and a PPARdelta fusion protein (GR-GAL4-humanPPARdelta-LBD) which mediates expression of the luciferase reporter element depending on a PPARdelta ligand. The stably and constitutively expressed fusion protein GR-GAL4-humanPPARdelta-LBD binds in the cell nucleus of the PPARdelta reporter cell line via the GAL4 protein portion to the GAL4 DNA binding motifs 5′-upstream of the luciferase reporter element which is stably integrated in the genome of the cell line. There is only little expression of the luciferase reporter gene in the absence of a PPARdelta ligand if fatty acid-depleted fetal calf serum (cs-FCS) is used in the assay. PPARdelta ligands bind and activate the PPARdelta fusion protein and thereby stimulate expression of the luciferase reporter gene. The luciferase which is formed can be detected by means of chemiluminescence via an appropriate substrate.
The production of the stable PPARdelta reporter cell line is based on a stable HEK-cell clone which was stably transfected with a luciferase reporter element. This step was already described above in the section “construction of the PPARalpha reporter cell line”. In a second step, the PPARdelta fusion protein (GR-GAL4-humanPPARdelta-LBD was stably introduced into this cell clone. For this purpose, the cDNA coding for the N-terminal 76 amino acids of the glucocorticoid receptor (Accession #P04150) was linked to the cDNA section coding for amino acids 1-147 of the yeast transcription factor GAL4 (Accession #P04386). The cDNA of the ligand-binding domain of the human PPARdelta receptor (amino acids S139-Y441; Accession #L07592) was cloned in at the 3′-end of this GR-GAL4 construct. The fusion construct prepared in this way (GR-GAL4-humanPPARdelta-LBD) was recloned into the plasmid pcDNA3 (Invitrogen) in order to enable constitutive expression by the cytomegalovirus promoter. This plasmid was linearized with a restriction endonuclease and stably transfected into the previously described cell clone containing the luciferase reporter element. […]
The activity of PPARdelta agonists is determined in a 3-day assay in exact analogy to the procedure already described for the PPARalpha reporter cell line except that the PPARdelta reporter cell line and a specific PPARdelta agonist was used as a standard to control test efficacy.

SMILES | EC50 (human PPARalpha) [µM] | EC50 (human PPARdelta) [µM]
CC1(C)CN(S(=O)(=O)c2ccc(-c3noc(=O)[nH]3)c(Cl)c2)c2ccc(-c3ccc(C(F)(F)F)cc3)nc21 [Example 16, 3-{2-Chloro-4-[3,3-dimethyl-5-(4-trifluoromethyl-phenyl)-2,3-dihydro-pyrrolo[3,2-b]pyridine-1-sulfonyl]-phenyl}-4H-[1,2,4]oxadiazol-5-one] | 0.8 | 0.0025
COc1ccc(-c2ccc3c(c2)CCN3S(=O)(=O)c2ccc(-c3noc(=O)[nH]3)cc2)nc1 [Example 8, 3-{4-[5-(5-Methoxy-pyridin-2-yl)-2,3-dihydro-indole-1-sulfonyl]-phenyl}-4H-[1,2,4]oxadiazol-5-one] |  | 1.3
O=c1[nH]c(-c2ccc(S(=O)(=O)N3CCc4cc(-c5ccc(C(F)(F)F)cc5)cnc43)cc2Cl)no1 [Example 14, 3-{2-Chloro-4-[5-(4-trifluoromethyl-phenyl)-2,3-dihydro-pyrrolo[2,3-b]pyridine-1-sulfonyl]-phenyl}-4H-[1,2,4]oxadiazol-5-one] | 1.89 | 0.034
COc1nc(C)ccc1-c1ccc2c(c1)CCN2S(=O)(=O)c1ccc(-c2noc(=O)[nH]2)cc1 [Example 5, 3-{4-[5-(2-Methoxy-6-methyl-pyridin-3-yl)-2,3-dihydro-indole-1-sulfonyl]-phenyl}-4H-[1,2,4]oxadiazol-5-one] |  | 3.55
